Measured values published in patent publication US4762839A, “Quinazolinone copmpounds useful for the prophyloxis and treatment of diabetic complications” (priority 1985, dated 1988).
Counter-ions that a name gives are not always drawn.

Key:
[1] = molecular target: T1, aldose reductase (Oryctolagus cuniculus, UniProt P15122); experiment: Aldose reductase inhibitory activity; type: biochemical; conditions: aldose reductase from lens of male rabbit
T1 construct: Aldose reductase was obtained from lens of male rabbit; from tissue; host or cells: lens of male rabbit (weighing 2.5-3.5 kg)
Method: Aldose reductase was obtained from lens of male rabbit (weighing 2.5-3.5 kg) in the same manner as described in J. Biol. Chem., Vol. 240, 877-882 (1965). The inhibitory activity of the test compounds against the aldose reductase was measured in the same manner as described in Biochim. Biophys. Acta., Vol. 128, 474-482 (1966).

[2] = system: ddY male mice; experiment: Acute toxicity and observation of symptoms; type: in vivo; conditions: for abnormal symptoms (dysbasia, areflexia, astasia, blepharoptosis, dyspnea, skin flush, lacrimation, etc.): mouse, in vivo, po; for mortality (acute toxicity): oral, suspension in 0.5% carboxymethyl cellulose, observed for 14 days, dose not given

| Compound | IC50 [1] | abnormal symptoms (dysbasia, areflexia, astasia, blepharoptosis, dyspnea, skin flush, lacrimation, etc.) [2] | mortality (acute toxicity) [2] |
| --- | --- | --- | --- |
| CN1C(=O)Nc2ccc(Br)cc2C12NC(=O)NC2=O (stereo not shown) [Test Compound 6, 6-Bromo-3-methyl-spiro[1,2,3,4-tetrahydroquinazoline-4,4'-imidazolidine]-2,2',5'-trione] | 52 nM |  |  |
| CN1C(=O)Nc2ccc(Cl)cc2C12NC(=O)NC2=O (stereo not shown) [Test Compound 1, 6-Chloro-3-methyl-spiro[1,2,3,4-tetrahydroquinazoline-4,4'-imidazolidine]-2,2',5'-trione] | 56 nM | there was not observed any abnormal symptom | no mouse died |
| CN1C(=O)Nc2ccc(Cl)cc2C12NC(=O)NC2=O (stereo not shown) [Test Compound 3, 6-Chloro-3-methyl-spiro[1,2,3,4-tetrahydroquinazoline-4,4'-imidazolidine]-2,2',5'-trione-1'-sodium salt] | 29 nM |  |  |
| CN1C(=O)Nc2ccc(Cl)cc2C12NC(=O)NC2=O (stereo not drawn) [Test Compound 2, d-6-Chloro-3-methyl-spiro[1,2,3,4-tetrahydroquinazoline-4,4'-imidazolidine]-2,2',5'-trione] | 22 nM | there was not observed any abnormal symptom | no mouse died |
| Cc1cc2c(cc1Cl)C1(NC(=O)NC1=O)N(C)C(=O)N2 (stereo not shown) [Test Compound 5, 6-Chloro-3,7-dimethyl-spiro[1,2,3,4-tetrahydroquinazoline-4,4'-imidazolidine]-2,2',5'-trione] | 30 nM |  |  |

Further lines, with some results ahead:

| IC50 [1] | Compound | abnormal symptoms (dysbasia, areflexia, astasia, blepharoptosis, dyspnea, skin flush, lacrimation, etc.) [2] | mortality (acute toxicity) [2] |
| --- | --- | --- | --- |
| 74 nM | CN1C(=O)Nc2cc(Cl)c(Cl)cc2C12NC(=O)NC2=O (stereo not shown) [Test Compound 7, 6,7-Dichloro-3-methyl-spiro[1,2,3,4-tetrahydroquinazoline-4,4'-imidazolidine]-2,2',5'-trione] |  |  |
| > 50000 nM | CN1C(=O)N(C)C2(C1=O)c1ccccc1NC(=O)N2C (stereo not shown) [Test Compound 12, 3,1',3'-Trimethyl-spiro[1,2,3,4-tetrahydroquinazoline-4,4'-imidazolidine]-2,2',5'-trione, reference compound] |  |  |
| 270 nM | CC(C)CN1C(=O)N(C)C2(NC(=O)NC2=O)c2cc(Cl)ccc21 (stereo not shown) [Test Compound 10, 1-Isobutyl-6-chloro-3-methyl-spiro[1,2,3,4-tetrahydroquinazoline-4,4'-imidazolidine]-2,2',5'-trione] |  |  |
| 10000 nM | CN1C(=O)NC2(C1=O)c1ccccc1NC(=O)N2C (stereo not shown) [Test Compound 11, 3,1'-Dimethyl-spiro[1,2,3,4-tetrahydroquinazoline-4,4'-imidazolidine]-2,2',5'-trione, reference compound] |  |  |
